Experiment [1] concerns Mus musculus. Description: Antitumor activity against transgenic mouse medulloblastoma model with loss of function mutations in Ptch1 and Hic1 gene administered as once daily oral dose. It is filed as functional.
The target of experiment [2] is T1, Zinc finger protein GLI1 (Homo sapiens, UniProt P08151).
T1 sequence (P08151 whole entry): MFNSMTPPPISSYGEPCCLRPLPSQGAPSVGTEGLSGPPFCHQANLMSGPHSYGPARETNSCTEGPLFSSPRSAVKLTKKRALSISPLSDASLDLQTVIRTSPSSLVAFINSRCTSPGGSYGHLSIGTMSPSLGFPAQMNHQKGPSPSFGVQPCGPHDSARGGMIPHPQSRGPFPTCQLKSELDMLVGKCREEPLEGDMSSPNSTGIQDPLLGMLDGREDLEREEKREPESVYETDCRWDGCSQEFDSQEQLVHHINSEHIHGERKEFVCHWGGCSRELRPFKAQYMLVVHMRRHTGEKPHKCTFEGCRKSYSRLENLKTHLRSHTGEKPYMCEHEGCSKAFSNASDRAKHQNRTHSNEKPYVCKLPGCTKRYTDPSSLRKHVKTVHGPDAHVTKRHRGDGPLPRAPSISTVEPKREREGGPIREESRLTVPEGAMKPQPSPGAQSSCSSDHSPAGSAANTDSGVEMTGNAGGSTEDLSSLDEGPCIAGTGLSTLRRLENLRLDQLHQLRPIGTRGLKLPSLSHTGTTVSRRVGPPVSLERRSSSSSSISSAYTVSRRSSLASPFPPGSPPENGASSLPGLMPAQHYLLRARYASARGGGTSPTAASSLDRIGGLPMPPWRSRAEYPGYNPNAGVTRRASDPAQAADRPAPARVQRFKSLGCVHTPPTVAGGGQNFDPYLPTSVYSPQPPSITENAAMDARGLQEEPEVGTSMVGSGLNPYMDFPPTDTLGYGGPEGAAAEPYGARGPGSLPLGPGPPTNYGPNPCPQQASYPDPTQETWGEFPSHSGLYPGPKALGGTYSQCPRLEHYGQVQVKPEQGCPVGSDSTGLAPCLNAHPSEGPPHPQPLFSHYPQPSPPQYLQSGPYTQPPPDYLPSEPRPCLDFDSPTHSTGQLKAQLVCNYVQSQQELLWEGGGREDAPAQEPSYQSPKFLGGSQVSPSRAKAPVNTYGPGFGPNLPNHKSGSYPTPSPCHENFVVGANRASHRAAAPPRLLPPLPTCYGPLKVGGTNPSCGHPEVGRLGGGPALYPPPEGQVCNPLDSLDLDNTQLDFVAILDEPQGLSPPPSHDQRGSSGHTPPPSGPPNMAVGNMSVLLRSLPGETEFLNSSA
Briefly: Inhibition of Gli1-mediated transcription expressed in human PANC1 cells. It is filed as cell-based. The note with it: panc-1.

A short description of experiment [3]: Antitumor activity against human medulloblastoma cells. It is filed as functional. The note with it: Medulloblastoma cell.
The subject of experiment [4] is PANC-1. Description: Selectivity for human PANC1 cells over mouse C3H10/T1/2 cells.
Experiment [5] can be described thus: Selectivity for Gli over Gli2.
The nature of experiment [6]: Growth inhibition of human L3.6p1 cells. The experiment is classed as functional.
Experiment [7] has as its system Daoy. Briefly: Growth inhibition of human DaOY cells. It is filed as functional.
Experiment [8] relates to BXPC-3. Description: In vivo antitumor activity against human BxPC3 cells assessed as inhibition of tumor growth. The experiment is classed as functional.
Experiment [9] in a line: Growth inhibition of human Panc 05.04 cells. The experiment is classed as functional.
The nature of experiment [10]: Growth inhibition of human D283 MED cells. The experiment is classed as functional.
Experiment [11] has as its system BXPC-3. Briefly: Growth inhibition of human BxPC3 cells. It is filed as functional.
Experiment [12] can be described thus: In vivo antitumor activity against human L3.6s1 cells assessed as inhibition of tumor growth. It is filed as functional.

A value given as a limit tells only on which side of the number the result lay.

On to `CC1=C2C[C@H]3[C@@H](CC[C@@H]4CNC(=O)CC[C@@]43C)[C@@H]2CC[C@@]2(C1)O[C@@H]1C[C@H](C)CN[C@H]1[C@H]2C`, for which the ED50 in [1] was less than 7.5 mg/kg.
With `C=C(C)[C@@H]1CC[C@]2(C(=O)O)CC[C@]3(C)[C@H](CC[C@@H]4[C@@]5(C)[C@H](C=O)[C@@H](O)C(C)(C)[C@@H]5CC[C@]43C)[C@@H]12` [COLUBRINIC ACID], the IC50 in experiment [2] came to 38000 nM.
`COc1cc(OC)cc(C(=O)Nc2ccc(Cl)c(-c3nc4cc(N(C)C)ccc4[nH]3)c2)c1`: half-maximal inhibition in experiment [3] (IC50) required 10000 nM.
Turning to `C=C(C)[C@@H]1CC[C@]2(C(=O)O)CC[C@]3(C)[C@H](CC[C@@H]4[C@@]5(C)CC[C@H](O)C(C)(C)[C@@H]5CC[C@]43C)[C@@H]12` [BETULINIC ACID], in experiment [2], the 50% inhibitory concentration (IC50) came to 32000 nM.
With `O=C1NCc2c1c1c3ccccc3[nH]c1c1[nH]c3ccccc3c21` [STAUROSPORINONE], the “Selectivity Index” value in experiment [4] came to 3.
For the compound `C[C@@]12C[C@H]3OC(=O)[C@@H]1CO[C@]14O[C@]5([C@H]2C1=O)[C@@](O)(CC[C@H]1[C@H]4C[C@H]2O[C@]24CC=CC(=O)[C@]14C)C(=O)O[C@@]35C` [PHYSALIN F], the “Selectivity Index” value in experiment [4] is listed as 3. In addition, in experiment [5], the Ratio IC50 worked out at 2.
Regarding `CCOc1ccc(Nc2nc(-c3c(C)nc4ccccn34)cs2)cc1`, the GI50 in experiment [6], in experiment [7], in experiment [9], in [10] and in experiment [11] was 3 nM each time. The “inhibition (INH)” value in [8] and in experiment [12] was 30% in each case.
In turn, `C=C(C)[C@@H]1CC[C@]2(C(=O)O)CC[C@]3(C)[C@H](CC[C@@H]4[C@@]5(C)C[C@@H](O)[C@H](O)C(C)(C)[C@@H]5CC[C@]43C)[C@@H]12` [ALPHITOLIC ACID] yielded a half-inhibitory concentration (IC50) in experiment [2] of 42000 nM.
In the case of `C[C@]12C(=O)C=CCC1=CC[C@@H]1[C@@H]2CC[C@]2(O)C(=O)O[C@@]3(C)[C@H]4C[C@]5(C)[C@@H](CO[C@@]16O[C@@]32[C@H]5C6=O)C(=O)O4` [PHYSALIN B], the “Selectivity Index” value in [4] was determined as 3. In addition, in experiment [5], the Ratio IC50 stood at 2.

The term ED50 denotes the midpoint of the dose-response relation. A high value points to a need for a large dose. The term IC50 denotes the concentration needed to halve the response being measured. The low end stands for greater potency in that assay, the high end for weaker potency in that assay. What is called GI50 is the concentration giving 50% growth inhibition. A high value points to less potent growth inhibition.

The values above are taken from ChEMBL document CHEMBL1138588, “Hedgehog-Gli signaling pathway inhibitors as anticancer agents” (J Med Chem, 2009).
